How the values were obtained:
[1] = Volatility of perfuming compounds (Tables 4 to 10), with top/middle/bottom note type; assay type: physicochemical
Outline: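 Volatility is expressed in μg/l in air. Top notes are 70,000 to 100 μg/l, middle notes 99 to 50 μg/l, and bottom notes 49 to 0.1 μg/l. Compounds are grouped by olfactive family: watery, green, fruity, citrus, sweet, gourmand and woody.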

[2] = Odor threshold and odor value of perfuming compounds (Tables 4 to 10)
[3] = Table 6, perfuming compounds having a fruity note
[4] = Table 6, perfuming compounds having a fruity note, note type by volatility
[5] = Table 10, perfuming compounds having a woody note, note type by volatility
[6] = Table 4, watery note, top, middle or bottom note
[7] = Table 4, watery note, equals volatility divided by odor threshold
[8] = note type (Top/Middle/Bottom) by volatility, perfuming compounds having a green note
[9] = perfuming compounds having a green note

Row | Molecule | Volatility [1, 3] | Type [1, 4] | Odor Threshold [2, 3] | Odor Value [2, 3] | Type [1, 8] | Volatility (μg/l air) [1, 9] | Odor Threshold (μg/l air) [2, 9] | further results
1 | CC(=O)/C(C)=C/C1C(C)=CCCC1(C)C (racemic) | 36.33 μg/l air | Bottom | 1.92E−04 μg/l air | 1.89E+05 | – | – | – | Type [1, 5]: Top; Volatility ([1]; Table 10, woody note): 106.28 μg/l air; Odor Threshold ([2]; Table 10, woody note): 5.03E−05 μg/l air
2 | CC1=CCC(CCC(C)C(C)O)C1(C)C (racemic) | – | – | – | – | – | – | – | Type [1, 5]: Bottom; Volatility ([1]; Table 10, woody note): 5.22 μg/l air; Odor Threshold ([2]; Table 10, woody note): 1.52E−03 μg/l air
3 | CCCCCCCCCC=O [DECANAL″] | – | – | – | – | – | – | – | Volatility (μg/l air) ([1]; Table 4, watery note): 466.56 μg/l air; Type [1, 6]: TOP (perfuming compounds having a volatility ranging from 70,000 to 100 μg/l in air are referred to as “top notes”); Odor Threshold (μg/l air) ([2]; Table 4, watery note): 1.92E−03 μg/l air; Odor Value [2, 7]: 2.43E+05
4 | CCCCCC#CC(=O)OC [METHYL 2-OCTYNOATE] | – | – | – | – | Top | 472.01 μg/l air | 8.31E−04 μg/l air | –
5 | CC/C=C\CC/C=C/C=O [(2E,6Z)-2,6-NONADIENAL″] | – | – | – | – | – | – | – | Volatility (μg/l air) ([1]; Table 4, watery note): 632.43 μg/l air; Type [1, 6]: TOP (perfuming compounds having a volatility ranging from 70,000 to 100 μg/l in air are referred to as “top notes”); Odor Threshold (μg/l air) ([2]; Table 4, watery note): 1.46E−04 μg/l air; Odor Value [2, 7]: 4.34E+06
6 | CC/C=C\CCOC(C)=O [(Z)-3-HEXENYL ACETATE] | – | – | – | – | Top | 3398.34 μg/l air | 1.00E−02 μg/l air | –
7 | C=CCCC(=O)C1=CCCC(C)(C)C1 [1-(5,5-dimethyl-1-cyclohexen-1-yl)-4-penten-1-one] | 38.43 μg/l air | Bottom | 1.64E−06 μg/l air | 2.34E+07 | Bottom | 38.43 μg/l air | 1.64E−06 μg/l air | –
8 | (−)-(1S)-2,6,6-TRIMETHYL-BICYCLO[3.1.1]HEPT-2-ENE | – | – | – | – | Top | 33722.60 μg/l air | 1.02E−01 μg/l air | –
9 | COc1ccc(COC(C)=O)cc1 [4-METHOXYBENZYL ACETATE] | 17.59 μg/l air | Bottom | 9.24E−05 μg/l air | 1.90E+05 | – | – | – | –
10 | CCCCCCCCC=O [nonanal] | – | – | – | – | Top | 2777.63 μg/l air | 8.14E−03 μg/l air | Volatility (μg/l air) ([1]; Table 7, citrus note): 2777.63 μg/l air; Type ([1]; Table 7, citrus note, top, middle or bottom note): Top; Odor Threshold (μg/l air) ([2]; Table 7, citrus note): 8.14E−03 μg/l air; Odor Value ([2]; Table 7, citrus note, equals volatility divided by odor threshold): 3.41E+05
11 | CC1(C)CC=C(CCC=O)CC1 | – | – | – | – | Top | 417.92 μg/l air | 2.06E−03 μg/l air | –
12 | CC1CC(C)(c2ccccc2)OC(C)O1 (stereo not shown) | 113.83 μg/l air | TOP (perfuming compounds having a volatility ranging from 70,000 to 100 μg/l in air are referred to as “top notes”) | 7.82E−03 μg/l air | 1.46E+04 | – | – | – | –
